Assay results reported in article PMC9645390, “Amphiphilic stilbene derivatives attenuate the neurotoxicity of soluble Aβ42 oligomers by controlling their interactions with cell membranes” (Chemical Science, 2022).

Key:
Aβ42 fibrils = target: T1, Aβ42 fibrils (Homo sapiens, UniProt P05067); test: Fluorescence saturation binding assay with Aβ42 fibrils; conditions: Aβ42 fibrils; for Kd: 10 mM PBS pH 7.4, one site-specific binding model, read-out: Kd, Fibrils; for binding ratio, Fibrils: from cross point between plateau and initial slope
T1 construct: 1 mg of commercial Aβ42 monomer powder (from GL biochem) was dissolved in 1; purchased GL biochem
Procedure: (§1) Fig. 3 Binding constant measurements of ZY-5-OMe (left), ZY-5-MT (middle), ZY-5-DT (right) with Aβ42 fibrils (top), and oligomers (bottom). The measurements were performed in 10 mM phosphate buffered saline (PBS), pH 7.4. The Kd curves were fitted in GraphPad Prism with one site-specific binding model. Equation: Y = Bmax × X/(Kd + X). [Aβ42 fibrils] = [Aβ42 oligomers] = 5 μM.
(§2) Preparation of the Aβ42 Fibrils and Aβ42 Oligomers
(§3) Aβ42 fibrils: 1 mg of commercial Aβ42 monomer powder (from GL biochem) was dissolved in 1
(§4) mL 1,1,1,3,3,3-hexafluoro-2-propanol (HFIP) at room temperature and incubated for 1h. The
(§5) resulting solution was divided equally into two Eppendorf tubes. The solution in each Eppendorf
(§6) tube containing 0.5 mg Aβ42 monomer was then evaporated overnight and dried by vacuum
(§7) centrifuge to generate monomeric films. 100 μM Aβ42 fibrils solution was prepared by dissolving
(§8) the 0.5 mg monomeric films in 1.1 mL PBS buffer (with final DMSO concentration less than 1%)
(§9) and stiring at 37 °C for 3 days.
(§10) Aβ42 oligomers: The 0.5 mg monomeric films were dissolved in 1.1 mL PBS buffer (with final
(§11) DMSO concentration less than 1%) and incubated at 4 °C overnight. The resulting solution was
(§12) then centrifuged at 3000 rpm for 15 mins to remove the insoluble aggregates. The clear supernatant
(§13) was then used for the following experiments. […]
(§14) In Vitro Saturation Binding Studies with Aβ42 Fibrils and Aβ42 Oligomers
(§15) To a solution of increasing concentrations of compounds, a fixed concentration of the generated
(§16) aggregated Aβ42 fibrils or Aβ42 oligomers solutions (5 to 15 μM) was added to yield a total volume
(§17) of 100 μL. Nonspecific binding was determined without compounds. The mixture was incubated
(§18) for 15 min at room temperature. All fluorescence data were obtained on a SpectraMax M2e plate
(§19) reader (Molecular Devices).

Aβ42 oligomers = target: T2, Aβ42 oligomers (Homo sapiens, UniProt P05067); test: Fluorescence saturation binding assay with Aβ42 oligomers; conditions: for Kd / binding ratio, Oligomers: Aβ42 oligomers; for Kd: 10 mM PBS pH 7.4, one site-specific binding model; for binding ratio, Oligomers: from cross point between plateau and initial slope; for binding preference oligomers vs fibrils (from Kd values): lower Kd for Aβ oligomers than Aβ fibrils
T2 construct: 1 mg of commercial Aβ42 monomer powder (from GL biochem) was dissolved in 1; purchased GL biochem
Procedure: as §1, §2, §3, §4, §5, §6, §7, §8, §9, §10, §11, §12, §13, §14, §15, §16, §17, §18, §19

[1] = Log D by octanol-PBS partition assay; type: physicochemical; conditions: pH 7.4, fluorescence readout
Procedure: In order to confirm that the compounds can also bind to native Aβ species, brain sections collected from 9-month-old 5xFAD transgenic mice have been employed in the fluorescence imaging studies. […] The brain sections were first incubated with our compounds, followed by Congo Red (CR), which is a well-established fluorescent probe that can bind to Aβ plaques.[34] The treated brain sections were then imaged using fluorescence microscope. […] Immunostaining with the CF594-conjugated HJ 3.4 antibody (CF594-HJ3.4) was also performed to confirm that these six compounds can bind to Aβ species specifically in the brain sections (Fig. 5). Moreover, the log D values of the compounds were also measured by octanol-PBS partition assays.[35] […]
The Log D value was measured following a published procedure using slight modifications.4 In general, compounds in 0.5 mL octanol was subjected to partition with 0.5 mL octanol-saturated
PBS. The whole mixture was stirred vigorously for 5 min, and centrifuged at 2,000 rpm for 5 min.
The top octanol layer was separated for later fluorescence measurement. The remaining PBS layer was partitioned with 0.5 mL PBS-saturated octanol, and the second top octanol layer was then separated after vigorous stirring and centrifuging at 2,000 rpm for another 5 min. The two octanol layers’ fluorescence spectra were recorded. The log D value was calculated by the fluorescence intensity ratio at the compounds’ emission wavelength for the above two octanol extractions. […]

[2] = system: Cu2+–Aβ42 species in Neuro2A cells; test: Cu2+-Aβ42-induced toxicity in Neuro2A cells (Alamar Blue); type: cell-based, mouse; conditions: [Aβ42] = [Cu2+] = 40 μM, compound 10 μM (ZY-12-OMe 5 μM), 40 h
Procedure: As mentioned above, compounds that are not cytotoxic at 10 μM, including ZY-12-MT, ZY-15-MT, ZY-15-OMe, ZY-17-MT, ZY-5-MT, ZY-5-DT, ZY-5-OMe, and ZY-12-OMe, were chosen for this study. Firstly, during the control studies, we observed that monomeric Aβ42 led to negligible neurotoxicity. Nevertheless, in the presence of both Cu^2+ and monomeric Aβ42, there was a significant cell death, which is likely due to the Cu^2+ associated neurotoxic Aβ42 oligomers formation.[46] […] According to the docking results, ZY-12-MT, ZY-15-OMe, ZY-15-MT, and ZY-5-OMe interact with Aβ42 tetramers mainly through residues His6, Asp7, Tyr10 (via hydrogen bonds), and Tyr10 (via π–π interactions). Some reports have also shown that His6, Asp7, and Tyr10 are potentially involved in the Cu–Aβ interactions, which explains why the compounds are able to attenuate the Cu–Aβ toxicity.[48]
Fig. 9 Cell viability results upon incubation of Neuro2A cells with monomeric Aβ42 in the presence or absence of metal ions and amphiphilic compounds. Concentrations: [Aβ42] = 40 μM, [Cu^2+] = 40 μM, [ZY-12-MT] = [ZY-15-OMe] = [ZY-15-MT] = [ZY-17-MT] = [ZY-5-OMe] = [ZY-5-MT] = [ZY-5-DT] = 10 μM, [ZY-12-OMe] = 5 μM. The error bars represent the standard deviation from five independent experiments, and the statistical analysis was evaluated according to one-way ANOVA (*p < 0.05).
Alamar Blue assay was chosen for the cytotoxicity studies.3 Mouse neuroblastoma Neuro2A (N2A) cells were grown with DMEM/10% FBS in a petri dish at 37 °C in a humidified atmosphere with 5% CO2. Then N2A cells were seeded in a 96-well plate (1.0 × 10^4/well). After 24 h incubation, cell media was changed to DMEM/N-2, and N2A cells were incubated for another 1 h. […]
For the Cu2+-Aβ-induced toxicity studies, cells were treated monomeric Aβ42, Cu2+, monomeric Aβ42 + Cu2+, and monomeric Aβ42 + Cu2+ + compounds, monomeric Aβ42 + Cu2+ + copper chelators (Me2HTACN or Me3TACN), respectively. After 40 h incubation, Alamar Blue solution (10 μL) was added, and the cells were incubated for another 90 min at 37 °C. The fluorescence intensity of each well was measured at 590 nm (excitation wavelength = 560 nm). […]
10. The effect of copper chelators on Cu2+-Aβ42 neurotoxicity
Figure S8. Cell viability results upon incubation of Neuro2A cells with 10 μM copper chelators (Me2HTACN or Me3TACN) in the presence or absence of 40 μM (Aβ42 + Cu2+). The error bars represent the standard deviation from five independent experiments, and the statistical analysis was evaluated according to one-way ANOVA. […]

T2 sequence (P05067 672-713 limits assumed): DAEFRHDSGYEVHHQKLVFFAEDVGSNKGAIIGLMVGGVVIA
T1 sequence (P05067 672-713 limits assumed): as above

SMILES	Kd (Aβ42 fibrils) [nM]	binding ratio, Fibrils (Aβ42 fibrils)	Kd (Aβ42 oligomers) [nM]	binding ratio, Oligomers (Aβ42 oligomers)	logD [1]	effect on Cu2+–Aβ42-induced toxicity (cell viability, in words) [2]	binding preference oligomers vs fibrils (from Kd values) (Aβ42 oligomers)
COc1cc(/C=C/c2ccc(-c3ccc(N(C)C)cc3)s2)cc(CN2CCN(C)CCN(C)CC2)c1O [ZY-5-OMe]	680	5.6	1040	4.0	1.18 ± 0.046	could significantly increase cell viability	–
CN1CCN(C)CCN(Cc2cc(-c3ccc(/C=C/c4ccc(N(C)C)cc4)s3)ccc2O)CC1 [ZY-12-MT]	4190	1.3	6270	1.0	0.83 ± 0.035	could significantly increase cell viability	–
CN1CCN(C)CCN(Cc2cc(/C=C/c3ccc(-c4ccc(C=O)cc4)s3)ccc2O)CC1 [ZY-15-MT]	530	10.0	2030	2.5	1.11 ± 0.021	could significantly increase cell viability	–
COc1cc(/C=C/c2ccc(-c3ccc(C=O)cc3)s2)cc(CN2CCN(C)CCN(C)CC2)c1O [ZY-15-OMe]	1240	3.0	470	8.1	1.053 ± 0.002	could significantly increase cell viability	higher binding affinity to oligomers over fibrils
COc1cc(OC)cc(-c2ccc(/C=C/c3cc(CN4CCN(C)CCN(C)CC4)c(O)c(CN4CCN(C)CCN(C)CC4)c3)cc2)c1 [ZY-17-DT]	2250	1.1	1030	33.3	0.606 ± 0.032	–	higher binding affinity to oligomers over fibrils
COc1cc(OC)cc(-c2ccc(/C=C/c3cc(CN4CCN(C)CCN(C)CC4)c(O)c(OC)c3)cc2)c1 [ZY-17-OMe]	180	21.9	120	46.7	0.732 ± 0.019	–	higher binding affinity to oligomers over fibrils
